According to US6369109B1, “Betulinic acid and derivatives thereof useful for the treatment of neuroectodermal tumor” (Deutsches Krebsforschungszentrum Stiftung des Offentlichen …, priority 1998, dated 2002):

What was measured:
[1] = tested on: isolated nuclei with mitochondria from SHEP cells; assay: Cell-free system of apoptosis: nuclear fragmentation of isolated nuclei; format: biochemical, human; conditions: for nuclear DNA fragmentation, mitochondria plus nuclei plus drug: Neo control mitochondria, 0.1-10 μg/ml betulinic acid or 5 mM atractyloside, 6 h, FIG. 8A, 8B
Protocol: (§1) For determination of nuclear fragmentation, nuclei (10^3/μl) were incubated with mitochondria (1 μg/μl) in buffer D (10 mM HEPES, pH 7.4, 50 mM NaCl, 2 mM MgCl2, 5 mM EGTA, 1 mM DDT, 2 mM ATP, 10 mM phosphocreatine, 50 μg/ml creatine kinase, 10 μM cytochalasin B) for 2 h at 37° C. Nuclei were stained with propidium iodide ([…]) and analyzed by flow cytometry. For determination of caspase activation, cytosolic extracts (2 μg/μl) were incubated with mitochondria (1 μg/μl), cytochrome c (0.1-100 μM) or AIF-containing mitochondrial supernatant (0.5 μg/μl) in buffer D for 2 h at 37° C. Partially purified AIF (cytochrome c-free) was prepared as previously described (0.5 mg/ml, Susin et al., 1997, J. Exp. Med. 186, 5-37; Susin et al., 1996, J. Exp. Med. 184, 1331-41). Proteins were separated by 15% SDS-PAGE and Western blot analysis was performed as described above.
Mitochondria isolated from SHEP cells, transfected with bcl-2 or bcl-XL or a neomycin resistance vector only, were incubated for 6 h with nuclei and 0.1-10 μg/ml betulinic acid (FIG. 8A) or 5 mM atractyloside (FIG. 8B) in the presence or absence of 50 μM bongkrekic acid or 60 μMZ-VAD-fnk. Nuclei incubated with either mitochondria from vector only cells or with betulinic acid were used as control. Nuclear apoptosis was determined by FACS analysis of propidium iodide stained DNA content.
SHEP cells transfected with bcl-2 or bcl-XL or a neomycin resistance vector only were treated with 10 μg/ml betulinic acid or 5 mM atractyloside for 6-24 h (FIG. 8C). Mitochondria were isolated and incubated with nuclei in the presence or absence of 50 μM bongkrekic acid or 60 μMZ-VAD-fmk. Nuclei incubated with either mitochondria front vector only cells or with betulinic acid were used as control. Nuclear apoptosis was determined by FACS analysis of propidium iodide stained DNA content.
Mitochondria isolated from SHEP cells transfected with bcl-2, Bcl-XL or a neomycin resistance vector only were treated with 10 μg/ml betulinic acid or 5 mM atractyloside for 0.5 h in the presence or absence of 50 μM bongkrekic acid or 60 μM zVAD-fmk. Mitochondrial supernatants obtained by high speed centrifugation were incubated with nuclei for 2 h at 37° C. Nuclei incubated with supernatants of untreated mitochondria were used as control.. Nuclear apoptosis was determined by FACS analysis of propidium iodide stained DNA content.
as §1, with “cytometry (Susin et al., 1997 Exp. Cell Res. 236:397-403).” for “cytometry.”, “(10” for “(0.1-100”, “C.” for “C. Partially purified AIF (cytochrome c-free) was prepared as previously described (0.5 mg/ml, Susin et al., 1997, J. Exp. Med. 186, 5-37; Susin et al., 1996, J. Exp. Med. 184, 1331-41).”, “before.” for “above.”
(§2) SHEP cells transfected with Bcl-2 or BCl-XL or a neomycin resistance vector only (Neo) were treated with 0.5 μg/ml Doxorubicin or 10 μg/ml Betulinic acid for 48 h (A) or 24 h (B and C). Cells transfected with a neomycin resistance vector only (Neo) were treated in the presence or absence of 50 μm BA or 60 μm zVAD-fmk. Nuclear apoptosis was determined by FACS analysis or propidium iodide-stained DNA content in intact cells (A) or in a CFS incubating isolated nuclei with mitochondria from cells treated with Doxo or betulinic acid (C). ΔΨm was determined by staining cells with the potential-sensitive fluorochrome DiOC6(3) (B).

[2] = tested on: mitochondria isolated from SHEP cells; assay: Mitochondrial membrane potential of isolated mitochondria (DiOC6(3)); format: biochemical, human; conditions: mitochondria from wild type or vector-only SHEP cells; 10 μg/ml betulinic acid, 30 min; FIG. 7, 12D
Protocol: For isolation of mitochondria, cells (3×10^5 per sample) were washed twice with ice-cold PBS and resuspended with five volumes of buffer A (50 mM Tris, 1 mM EGTA, 5 mM 2-mercaproethanol, 0.2% BSA, 10 mM KH2PO4, pH 7.6, 0.4 M sucrose) and allowed to swell on ice for 20 min. Cells were homogenized with 30 strokes of a Teflon homogenizer and centrifuged at 10000 g for 10 min at 4° C. The resulting pellets were resuspended in buffer B (10 mM KH2PO4, pH 7.2, […] mannitol, 0.1% BSA). Mitochondria were separated by sucrose gradient (lower layer: 1.6 M sucrose, 10 mM KH2PO4, pH 7.5, 0.1% BSA; upper layer: 1.2 M sucrose, 10 mM KH2PO4, pH 7.5, 0.1% BSA). Interphases containing mitochondria were washed with buffer B at 18000 g for 10 min at 4° C. and the resulting mitochondrial pellets were resuspended in buffer B. For preparation of cytosolic extracts, cells (1×10^8 per sample) were washed twice with ice-cold PBS, resuspended with one volume of buffer A and allowed to swell on ice for 20 min. Cells were homogenized with 30 strokes of a Dounce homogenizer and centrifuged at 15000×g for 15 min ax 4° C. The protein concentration of mitochondria or cytosolic extracts was determined by Bradford method (Bio-Rad). For isolation of nuclei, cells were washed twice in ice-cold PBS, resuspended in 10 volumes of buffer C (10 mM PIPES, pH 7.4, 10 mM KCl, 2 mM MgCl2, 1 mM DDT, 1 mM PMSF, 10 μM cytochalasin B), allowed to swell on ice for 20 min and homogenized using a Teflon homogenizer. Homogenates were layered over 30% sucrose in buffer C and centrifuged at 800 g for 10 min. The resulting nuclear pellets were resuspended in buffer C and washed three times. Nuclei were scored at −80° C. in aliquots of 10^8 nuclei/ml until required. AIF-containing mitochondrial supernatant was prepared as described in Susin et aL, 1997, J. Exp. Med. 186, 5-37 and Susin et al., 1996, J. Exp. Med. 184, 1331-41.
Mitochondria (5×10^5/ml) were treated with 10 μg/ml betulinic acid for 30 min, incubated with 3,3′-dihexyloxacarbocyanide iodide (DiOC6(3), 40 nM, Molecular Probes, Inc., Eugene, Oreg.) for 15 min at 37° C. and analyzed on a flow cytometer (FACS Vantage, Becton Dickinson). As a control, cells were treated with the uncoupling agent carbonyl cyanide m-chlorophenylhydrazone (mCICCP, 200 μM, Sigma).

[3] = tested on: SH-EP neuroblastoma cells; assay: Specific apoptosis, FACS analysis of propidium iodide-stained nuclei; format: cell-based, human; conditions: 10 μg/ml antibody fragments 1 h before drug; 10 μg/ml betulinic acid, 50 μg/ml VP-16, 10 μg/ml cisplatinum, 0.5 μg/ml doxorubicin, 72 h; FIG. 3B
Protocol: Quantification of DNA fragmentation was performed by FACS analysis of propidium iodide stained nuclei as described in Nicoletti et al, 1991, J. Immunol. Methods. 139: 271-279. Cells were analyzed for DNA content by flow. cytometry (FACScan, Becton Dickinson, Heidelberg, Germany) using CELLQuest software. Early apoptotic changes were identified by staining with biotinylated annexin V (Bender Med Systems, Vienna, Austria) following the manufacturer's instructions. Annexin V binds to exposed phosphatidylserine on the surface of apoptotic cells. Koopman et al, 1994, Blood. 84:1415-1420. Cells were analyzed by flow cytometry (FAC-Scan. Becton Dickinson) using CELLQuest software.
Cells were treated with 10 μg/ml betulinic acid for 72 h. Apoptosis was assessed by FACS analysis of propidium iodide-stained nuclei. Percentage of specific apoptosis was calculated as follows: experimental apoptosis (%) −spontaneous apoptosis in medium (%)/[100%−spontaneous apoptosis in medium (%)]×100%. […]
Cells were incubated for indicated times with doxorubicin, betulinic acid or anti-APO-1 and harvested by trypsinization using 0.05% trypsin and 0.02% EDTA without Ca^2+and Mg^2+(Life Technologies, Inc.). Quantification of DNA fragmentation was performed by FACS analysis of propidium iodide stained nuclei as previously described in Nicoletti et al., J. ImmunoL Methods 139:271-279, using CELLQuest software (Becton Dickinson, Heidelberg, Germany).
as §2

[4] = tested on: caspase-3, caspase-8 and PARP in cytosolic extracts of SHEP cells; assay: Cell-free system of apoptosis: cleavage of caspases in cytosolic extracts by mitochondria; format: biochemical, human
Protocol: as §1, with “above. To confirm equal loading of mitochondrial protein, all Western blots were also developed with an antibody directed against a 60 kDa mitochondrial antigen (data not shown).” for “above.”
SHEP cells transfected with bcl-2 or Bcl-XL or a neomycin resistance vector only were treated with 10 μg/ml betulinic acid for 16 h. Mitochondria were isolated and incubated with cytosolic extracts for 6 h in the presence or absence of 60 μM zVAD-fmk (left panel, cells). Alternatively, mitochondria isolated from untreated cells were incubated with 10 μg/ml betulinic acid or 5 mM atractyloside together with cytosolic extracts for 6 h in the presence or absence of 60 μMZ-VAD-fmk (right panel, mitos, Atra). Cytosolic extracts incubated with mitochondria isolated from untreated cells or with untreated mitochondria were used as control. 40 μg protein per lane isolated front cell lysates were separated by 15% SDS-PAGE. Immunodetection of caspases-3, -8 and PARP protein was performed by mouse anti-caspase-3 mAb, mouse anti-caspase-8 mAb, rabbit anti-PARP polyclonal antibody and ECL.
SHEP cells treated with 10 μg/ml betulinic acid for indicated times. Mitochondria were isolated and incubated with cytosolic extracts for 6 h. Western blot analysis was performed as described above.
Mitochondria isolated from SHEP cells transfected with bcl-2 or Bcl-XL or a neomycrn resistance vector only were treated with 10 μg/ml betulinic acid or 5 mM atractyloside for 0.5 h in the presence or absence of 50 μM bongkrekic acid or 60 μM zVAD-fmk. Mitochondrial supernatants obtained by high speed centrifugation were incubated with cytosolic extracts for 6 h at 37° C. Cytosolic extracts incubated with supernatants of untreated mitochondria were used as control. Western blot analysis was performed as described for FIG. 9A.
as §1, with “cytometry (Susin et al., 1997 Exp. Cell Res. 236:397-403).” for “cytometry.”, “(10” for “(0.1-100”, “C.” for “C. Partially purified AIF (cytochrome c-free) was prepared as previously described (0.5 mg/ml, Susin et al., 1997, J. Exp. Med. 186, 5-37; Susin et al., 1996, J. Exp. Med. 184, 1331-41).”, “before.” for “above.”
SHEP cells transfected with Bcl-2 or Bcl-XL or a neomycin resistance vector only (Neo) were treated (Lanes+) with 0.5 μg/ml Doxo or 10 μg/ml Bet A for 16 h. Mitochondria were isolated and incubated with cytosolic extracts for 6 h. in the presence or absence of 60 μm Z-VAD.fmk. Western blot analysis was performed as described in FIG. 14A.

N.N.[Cl][Pt][Cl] [cisplatinum]
nuclear DNA fragmentation, mitochondria plus nuclei plus drug [1]: No DNA fragmentation was observed | Δψm of isolated mitochondria [2]: did not induce mitochondrial perturbations | effect of CD95 blockage by F(ab′)2 anti-APO-1 on drug-induced apoptosis [3]: markedly reduced

COc1cc([C@@H]2c3cc4c(cc3[C@@H](O[C@@H]3O[C@@H]5CO[C@@H](C)O[C@H]5[C@H](O)[C@H]3O)[C@H]3COC(=O)[C@H]23)OCO4)cc(OC)c1O [VP-16, etoposide]
nuclear DNA fragmentation, mitochondria plus nuclei plus drug [1]: No DNA fragmentation was observed | Δψm of isolated mitochondria [2]: did not induce mitochondrial perturbations | effect of CD95 blockage by F(ab′)2 anti-APO-1 on drug-induced apoptosis [3]: markedly reduced

C=C1[C@@H]2CC[C@H]3[C@]4(C)C[C@H](O[C@@H]5O[C@H](CO)[C@@H](OS(=O)(=O)O)[C@H](OS(=O)(=O)O)[C@H]5OC(=O)CC(C)C)C[C@@H](C(=O)O)[C@H]4CC[C@]3(C2)[C@H]1O [atractyloside]
DNA fragmentation by supernatants from treated mitochondria ([1]; 10 μg/ml betulinic acid or 5 mM atractyloside 0.5 h, supernatant with nuclei 2 h, FIG. 10B): caspase activation and nuclear fragmentation were observed | nuclear DNA fragmentation, mitochondria plus nuclei plus drug [1]: had the same effect as betulinic acid | caspase cleavage in cytosolic extracts by supernatants from treated mitochondria ([4]; 10 μg/ml betulinic acid or 5 mM atractyloside 0.5 h, extracts 6 h, FIG. 10A): caspase activation and nuclear fragmentation were observed | caspase cleavage in cytosolic extracts by treated isolated mitochondria ([4]; 10 μg/ml betulinic acid or 5 mM atractyloside, 6 h, FIG. 9A): led to activation of caspases
